Measurements as given in patent US6015808A, “Synthesis of pharmaceutical compositions with lactams and β-lactams/oxo thia azabicyclo compounds” (priority 1995, dated 2000).
≈ marks a conversion by molar mass, not a printed value. Entries after “also recorded” stand apart in the source; their conditions may differ. Each block holds one molecule with its values, some of them ahead of it. Starred links: 1 amine or outer side, 2 acyl side, 3 side chain; linkers in the order of their positions; H or OH if unused. Positions of bridges follow the written chain, without caps; N, C: chain ends. Non-standard residues stand in square brackets, D forms with d. Residues, ends and D or L forms follow the SMILES beside them. Chains are numbered I, II in the order given. Actinocin(9to1) = Cc1c2oc3c(C)ccc(C(=O)[*:1])c3nc-2c(C(=O)[*:2])c(N)c1=O; NMeV = CN[C@H](C(=O)O)C(C)C; Sar = CNCC(=O)O

Experiments:
Candida albicans = experiment: survival of mice challenged with Candida albicans; type: in vivo, Swiss albino mice; details: for survival rate: 21-day study period, clotrimazole types 7.5 mg/kg, nystatin types 50 mg/kg; for survival rate after extended treatment: treatment extended two more weeks, 28 days post-inoculation
[1] = system: human breast carcinoma MX-1; experiment: MX-1 human breast tumor in nude mice; details: intraperitoneal; for effect on MX-1 tumors (in words): 0.5 mg/kg escalating to 5 mg/kg (parents) or 20 mg/kg (JAI-); for deaths / survival of MX-1 mice (in words): 3 animals per group
Method: Nude mice were grafted with transplantable human breast carcinoma MX-1, which was allowed to grow until the tumors were very large. The mice were then treated with clinically compatible dosage schedules of the compounds. All doses were administered intraperitoneally.
A control group (3 animals in the group), grafted with MX-1 tumor, which was allowed to grow to large tumors. Then, the mice were injected with distilled water and their tumors were measured simultaneously with the experimental treated animals.
1. […] The starting dose of mitomycin C was 0.5 mg/kg. escalating up to 5 mg/kg to all mice in the group. […] (3 animals per group).
2. […] The starting dose was 0.5 mg/kg escalating to 20 mg/kg. […] (3 animals per group).
3. […] The starting dose was 0.5 mg/kg escalating to 5 mg/kg. (3 animals per group).
4. […] The starting dose was 0.5 mg/kg escalating to 20mg/kg doses. (3 animals per group).

P. marneffei = experiment: in vitro MIC against P. marneffei, tube double dilution; type: cell-based, Penicillium marneffei; details: Talaromyces marneffei, standard tube double dilution, read-out: minimum inhibitory concentration (MIC)
oral absorption = type: in vivo
Bacillus subtilis = details: 28° C., 12 hours
bacteria = details: cited from earlier work
M. leprae = experiment: in vitro culture of M. leprae, growth inhibition; type: cell-based
[2] = system: Mycobacterium avicum Complex (MAC); details: cited from earlier work
toxicity / LD 50 in mice = details: mouse, in vivo
fungi = details: cited from earlier work

Molecule: Clc1ccccc1C(c1ccccc1)(c1ccccc1)n1ccnc1 [Clotrimazole]
survival rate (Candida albicans): 62.5%
survival rate after extended treatment (Candida albicans): zero
solubility in water: insoluble in water

Molecule: CO[C@@]12[C@H](COC(N)=O)C3=C(C(=O)C(C)=C(N)C3=O)N1C[C@@H]1N[C@@H]12 [Mitomycin C]
effect on MX-1 tumors (in words) ([1]; listed as Mitomycin-C): the tumors regressed
effect on MX-1 tumors (in words) ([1]; listed as mitomycin-C): eliminated the human MX-1 breast tumors
deaths / survival of MX-1 mice (in words) ([1]; listed as Mitomycin-C): died
deaths / survival of MX-1 mice (in words) ([1]; listed as mitomycin-C): All animals died in a two month time span; also recorded: all animals in this treatment group died from hepatotoxicity

MIC (P. marneffei): 0.195 to 0.39 µg/mL (≈ 0.367 to 0.734 µM)
Molecule: CC(=O)N1CCN(c2ccc(OCC3COC(Cn4ccnc4)(c4ccc(Cl)cc4Cl)O3)cc2)CC1 (stereo not drawn) [ketoconazole]

Molecule: C[C@@H]1[C@H](O)[C@@H](C)/C=C/C=C/C=C/C=C/C=C/C=C/C=C/[C@H](O[C@@H]2O[C@H](C)[C@@H](O)[C@H](N)[C@@H]2O)C[C@@H]2O[C@](O)(C[C@@H](O)C[C@@H](O)[C@H](O)CC[C@@H](O)C[C@@H](O)CC(=O)O[C@H]1C)C[C@H](O)[C@H]2C(=O)O [amphotericin B]
oral absorption (oral absorption): poorly absorbed orally
MIC (P. marneffei): 0.195 to 1.56 µg/mL (≈ 0.211 to 1.69 µM)

Molecule: Nc1nc(=O)[nH]cc1F [5-FC, 5-fluorocytosine]
MIC (P. marneffei): 0.195 to 0.78 µg/mL (≈ 1.51 to 6.04 µM)

Molecule: hamycin
zone of inhibition, B. subtilis seeded plate (Bacillus subtilis): no zone spot
antibacterial activity (stated as known) (bacteria): no antibacterial activity

Molecule: bleomycin
effect on MX-1 tumors (in words) [1]: some initial slowing in tumor growth, but then had no response
effect on MX-1 tumors (in words) ([1]; listed as Bleomycin): some initial slowing of tumor growth, but then there was no response

Molecule: NCC[C@H](O)C(=O)N[C@@H]1C[C@H](N)[C@@H](O[C@H]2O[C@H](CN)[C@@H](O)[C@H](O)[C@H]2O)[C@H](O)[C@H]1O[C@H]1O[C@H](CO)[C@@H](O)[C@H](N)[C@H]1O [amikacin]
inhibition at 100 µg/mL (M. leprae; Mycobacterium leprae, 100 mcg/ml, read-out: growth inhibition against M. leprae): 63%
M. leprae killed (M. leprae; concentration not given): 63%
effect of combination with dapsone on M. leprae (M. leprae; in combination with dapsone): did not show any additive effects
activity against MAC (earlier studies) [2]: high in vitro and in vyvn activity

Molecule: C[C@@H]1[C@H](O)[C@@H](C)/C=C/C=C/CC/C=C/C=C/C=C/C=C/C(O[C@H]2O[C@H](C)[C@@H](O)[C@H](N)[C@@H]2O)CC2O[C@](O)(CC(O)C(O)CCC(O)CC(O)CC(O)CC(=O)O[C@H]1C)CC(O)C2C(=O)O (stereo partly drawn) [nystatin]
survival rate (Candida albicans): 75%
survival rate after extended treatment (Candida albicans): 75%

Molecule: Cc1c2oc3c(C)ccc(C(=O)N[C@@H]4C(=O)N[C@H](C(C)C)C(=O)N5CCC[C@H]5C(=O)N(C)CC(=O)N(C)[C@@H](C(C)C)C(=O)O[C@@H]4C)c3nc-2c(C(=O)N[C@@H]2C(=O)N[C@H](C(C)C)C(=O)N3CCC[C@H]3C(=O)N(C)CC(=O)N(C)[C@@H](C(C)C)C(=O)O[C@@H]2C)c(N)c1=O [dactinomycin] (I: T[dV]P[Sar][NMeV] / II: T[dV]P[Sar][NMeV]; ester I:1-I:C, II:1-II:C; linker I:N-II:N via Actinocin(9to1))
LD50 (toxicity / LD 50 in mice): 0.5 to 5 mg/kg

Molecule: Clc1ccc(COC(Cn2ccnc2)c2ccc(Cl)cc2Cl)c(Cl)c1 (stereo not drawn) [miconazole]
MIC (P. marneffei): 0.195 µg/mL (≈ 0.469 µM)

Molecule: CC1(C)S[C@@H]2[C@H](NC(=O)Cc3ccccc3)C(=O)N2[C@H]1C(=O)O [sodium penicillin G]
solubility in acetone (acetone): insoluble in acetone
solubility in methanol, alcohol, other solvents (methanol, alcohols, ethyl acetate, other solvents): soluble in water, alcohol and some solvents
solubility in water: soluble in water
antifungal activity (stated as known) (fungi): no antifungal activity
